In ChEMBL document CHEMBL3856182, “How much successful are the medicinal chemists in modulation of SIRT1: A critical review” (Eur J Med Chem, 2016):
Values after ≈ are worked out from the molar mass of the structure shown.

Tests used:
[1] = Oral bioavailability in rat at 56 or 168 mg/kg/day administered through gavage for 14 consecutive days by HPLC analysis; assay type: ADME, organism-based; conditions: in vivo
[2] = molecular target: T1, NAD-dependent protein deacetylase sirtuin-1 (Homo sapiens, UniProt Q96EB6); experiment: Inhibition of human SIRT1 using biotinylated peptide with an acetylated FLAG sequence as substrate measured after 3 hr in presence of NAD+ by TR-FRET assay
T1 sequence (Q96EB6 whole entry): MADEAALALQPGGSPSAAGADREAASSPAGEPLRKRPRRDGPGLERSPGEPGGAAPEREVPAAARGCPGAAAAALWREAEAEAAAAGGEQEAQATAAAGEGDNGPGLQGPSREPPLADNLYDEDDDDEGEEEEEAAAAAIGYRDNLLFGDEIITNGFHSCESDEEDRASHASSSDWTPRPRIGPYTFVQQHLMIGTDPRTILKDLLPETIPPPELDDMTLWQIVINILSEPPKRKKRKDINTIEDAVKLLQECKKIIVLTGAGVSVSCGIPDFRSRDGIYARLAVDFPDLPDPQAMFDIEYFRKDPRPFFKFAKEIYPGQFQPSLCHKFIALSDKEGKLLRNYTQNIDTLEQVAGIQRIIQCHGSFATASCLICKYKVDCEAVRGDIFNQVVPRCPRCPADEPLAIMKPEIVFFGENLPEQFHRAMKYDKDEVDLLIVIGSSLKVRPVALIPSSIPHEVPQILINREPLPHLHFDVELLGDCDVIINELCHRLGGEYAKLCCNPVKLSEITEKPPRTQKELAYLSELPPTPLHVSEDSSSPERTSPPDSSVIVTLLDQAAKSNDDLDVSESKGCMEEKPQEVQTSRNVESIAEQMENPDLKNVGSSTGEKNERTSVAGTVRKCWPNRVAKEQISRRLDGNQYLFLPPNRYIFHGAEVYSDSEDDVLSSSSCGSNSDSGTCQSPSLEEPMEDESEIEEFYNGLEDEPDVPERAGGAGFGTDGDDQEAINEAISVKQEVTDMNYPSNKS

[3] = molecular target: T2, NAD-dependent protein deacetylase sirtuin-2 (Homo sapiens, UniProt Q8IXJ6); experiment: Inhibition of human SIRT2 using biotin labeled histone H4 peptide with an acetylated lysine 4 as substrate measured after 1 hr by luminescence analysis
T2 sequence (Q8IXJ6 whole entry): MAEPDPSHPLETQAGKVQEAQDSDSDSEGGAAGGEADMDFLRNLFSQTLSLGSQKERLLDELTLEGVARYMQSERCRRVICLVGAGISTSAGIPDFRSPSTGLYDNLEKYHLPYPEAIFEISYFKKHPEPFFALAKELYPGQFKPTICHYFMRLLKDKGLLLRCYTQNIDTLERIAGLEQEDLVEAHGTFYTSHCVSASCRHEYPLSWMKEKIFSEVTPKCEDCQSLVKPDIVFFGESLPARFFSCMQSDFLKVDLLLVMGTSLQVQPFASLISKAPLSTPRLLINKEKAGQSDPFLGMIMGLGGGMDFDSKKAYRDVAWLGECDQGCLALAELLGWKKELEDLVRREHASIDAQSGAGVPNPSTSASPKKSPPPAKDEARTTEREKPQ

[4] = molecular target: T1, NAD-dependent protein deacetylase sirtuin-1; experiment: Activation of recombinant human SIRT1 assessed as increase in deacetylation of Fluor de Lys-SIRT1-specific substrate after 2 hrs by HTS assay
[5] = molecular target: T1, NAD-dependent protein deacetylase sirtuin-1; experiment: Inhibition of recombinant human GST-tagged SIRT1 overexpressed in Escherichia coli DH5alpha assessed as deacetylation activity using [3H]-MPSDKTIGG as substrate measured after overnight incubation by liquid scintillation counting method
[6] = molecular target: T2, NAD-dependent protein deacetylase sirtuin-2; experiment: Inhibition of recombinant human GST-tagged SIRT2 overexpressed in Escherichia coli DH5alpha assessed as deacetylation activity using [3H]-MPSDKTIGG as substrate measured after overnight incubation by liquid scintillation counting method
[7] = molecular target: T1, NAD-dependent protein deacetylase sirtuin-1; experiment: Inhibition of recombinant human SIRT1 (193 to 747 residues) expressed in Escherichia coli BL21 (DE3) using AMC-labeled p53-derived acetylated lysine as substrate in presence of NAD+ by HTS assay
[8] = Cytotoxicity in human LNCAP cells assessed as growth inhibition measured after 48 hrs by MTT assay; assay type: functional
[9] = Cytotoxicity in human Caco2 cells assessed as growth inhibition measured after 48 hrs by MTT assay; assay type: functional; conditions: Caco-2, 48 h
[10] = Cytotoxicity in human U937 cells assessed as growth inhibition measured after 48 hrs by MTT assay; assay type: functional; conditions: U-937, 48 h
[11] = Cytotoxicity in HEK293 cells assessed as growth inhibition measured after 48 hrs by MTT assay; assay type: toxicity, cell-based; conditions: human
[12] = Cytotoxicity in human MDA-MB-231 cells assessed as growth inhibition measured after 48 hrs by MTT assay; assay type: functional; conditions: MDA-MB-231, 48 h
[13] = molecular target: T3, NAD-dependent protein deacetylase sirtuin-1 (Homo sapiens) (UniProt Q96EB6); experiment: Activation of recombinant human SIRT1 using TPE-GK(Ac)YDD as substrate at 50 uM by fluorescence assay relative to control
T3 sequence (whole entry): T1 sequence (Q96EB6 whole entry)

[14] = molecular target: T1, NAD-dependent protein deacetylase sirtuin-1; experiment: Inhibition of recombinant SIRT1 (unknown origin) assessed as deacetylation activity using acetylated p53 as substrate measured after 2 hrs by Fluor de Lys assay
[15] = molecular target: T3, NAD-dependent protein deacetylase sirtuin-1 (Homo sapiens); experiment: Activation of recombinant human SIRT1 using TPE-GK(Ac)YDD as substrate at 1 to 50 uM by fluorescence assay relative to control
[16] = Cytotoxicity against human leukemia cells; assay type: functional; conditions: Leukemia cell
[17] = Cytotoxicity against human lung cancer cells; assay type: functional; conditions: Cancer cell lines
[18] = Cytotoxicity against human breast cancer cells; assay type: functional; conditions: Cancer cell lines
[19] = Cytotoxicity against human kidney cancer cells; assay type: functional; conditions: Cancer cell lines
[20] = Cytotoxicity against human colon cancer cells; assay type: functional; conditions: Cancer cell lines
[21] = Cytotoxicity against human prostate cancer cells; assay type: functional; conditions: Cancer cell lines
[22] = molecular target: T1, NAD-dependent protein deacetylase sirtuin-1; experiment: Inhibition of human SIRT1 assessed as deacetylation activity preincubated with protein followed by addition of AMC-tagged Arg-His-Lys-Lys(Ac) (379 to 382 residues) as substrate measured after 45 mins in presence of NAD+ by fluorescence assay

For `COc1cc(/C=C/c2ccc(O)cc2)cc(OC)c1` [PTEROSTILBENE], the bioavailability [1] was 80%.
In the case of `Cn1ncnc2c(=O)n(C)c(=O)nc1-2`, the IC50 [2] is reported as 0.87 µM and the IC50 [3] is reported as 14.4 µM.
With `Nc1c(S(=O)(=O)c2ccccc2)c2nc3ccccc3nc2n1-c1ccc(F)cc1` the EC50 [4] was < 1 µM.
In the case of `CC(C)=CCC[C@]1(C)[C@@H](CC=C(C)C)C[C@]2(CC=C(C)C)C(=O)C(CC=C(C)C)=C(O)[C@@]1(C(=O)C(C)C)C2=O`, the IC50 [5] is reported as 15 µM and the IC50 [6] is reported as 28 µM.
With `Fc1cccc(-n2cc(CSC(=S)N3CCN(C(=S)SCc4cn(-c5ccccc5F)nn4)CC3)nn2)c1` the IC50 [7] was 1.08 µM.
In the case of `CCCCc1nc2c(=O)n(C)c(=O)nc-2n(C)n1`, the IC50 [2] is reported as 0.11 µM and the IC50 [3] is reported as > 100 µM.
For `O=C(O)c1cccc(NC(=O)c2ccc(N3C(=O)c4ccc(C(=O)Nc5cccc(C(=O)O)c5)cc4C3=O)cc2)c1`, the GI50 [8] was < 1 µM, the GI50 [9] was < 1 µM and the GI50 [10] was < 1 µM. The GI50 at 48 h [11] was < 1 µM and the GI50 [12] was < 1 µM.
Work on `CC(C)=CCC[C@](C)(O[C@@H]1O[C@H](CO)[C@@H](O)[C@H](O)[C@H]1O)[C@H]1CC[C@]2(C)[C@@H]1[C@H](O)C[C@@H]1[C@@]3(C)CC[C@H](O)C(C)(C)[C@@H]3[C@@H](O)C[C@]12C` yielded an Activity [13] of 28%.
Work on `CN(C)/C=N/C(=O)C1CCCc2c1[nH]c1ccc(Cl)cc21` (centres undefined) yielded an IC50 [14] of 0.149 µM.
In the case of `COc1ccc2[nH]c3c(c2c1)CCCC3C(=O)O` (centres undefined), the IC50 [14] is reported as 2.8 µM.
With `CC(C)=CCC[C@]1(C)[C@@H](CC=C(C)C)C[C@@]2(CC=C(C)C)C(=O)[C@]1(C(=O)C(C)C)C(=O)C(CC=C(C)C)=C2OCC(=O)O` the IC50 [5] was 7 µM and the IC50 [6] was 21 µM.
In the case of `CC(C)=CCC[C@](C)(O[C@@H]1O[C@H](CO[C@@H]2OC[C@H](O)[C@H](O)[C@H]2O)[C@@H](O)[C@H](O)[C@H]1O)[C@H]1CC[C@]2(C)[C@@H]1[C@H](O)C[C@@H]1[C@@]3(C)CC[C@H](O[C@@H]4O[C@H](CO)[C@@H](O)[C@H](O)[C@H]4O[C@@H]4O[C@H](CO)[C@@H](O)[C@H](O)[C@H]4O)C(C)(C)[C@@H]3CC[C@]12C`, the Activity [15] is reported as 8 to 152%.
`COc1ccc2c3c(c4cc(OC)c(OC)cc4c2c1)CN1CCCC[C@@H]1C3` showed a GI50 [16] of 0.0002 to 0.1 µg/mL (≈ 0.00053 to 0.265 µM), a GI50 [17] of 0.0002 to 0.1 µg/mL (≈ 0.00053 to 0.265 µM) and a GI50 [18] of 0.0002 to 0.1 µg/mL (≈ 0.00053 to 0.265 µM). It also gave a GI50 [19] of 0.0002 to 0.1 µg/mL (≈ 0.00053 to 0.265 µM), a GI50 [20] of 0.0002 to 0.1 µg/mL (≈ 0.00053 to 0.265 µM) and a GI50 [21] of 0.0002 to 0.1 µg/mL (≈ 0.00053 to 0.265 µM).
With `CCc1ccccc1-n1c(N)c(C(=O)NCC2CCCO2)c2nc3ccccc3nc21` (centres undefined) the EC50 [4] was < 1 µM.
`Cc1ccc2[nH]c3c(c2c1)CCCC3C(=O)O` (centres undefined) gave an IC50 [14] of 3.1 µM.
For `Oc1ccccc1-c1nc2ccc(Cl)cn2c1NCc1ccc2c(c1)OCO2`, the GI50 [8] was < 1 µM, the GI50 [9] was < 1 µM and the GI50 [10] was < 1 µM. For the same compound, the GI50 at 48 h [11] was < 1 µM, the IC50 [22] was 32 µM and the GI50 [12] was < 1 µM.
